PubChem BioAssay AID1033 (Sanford-Burnham Center for Chemical Genomics, 2008)
Calls of active or inactive are those of the source. No rule for the calls is given here.

target: Chaperone protein DnaK (Escherichia coli (strain K12)) (UniProt P0A6Y8); assay: E. coli DnaK SBD ligand binding – biophysical, NMR, chaperone (AID 1033); details: Purified DnaK SBD
Sequence (P0A6Y8 whole entry, looked up): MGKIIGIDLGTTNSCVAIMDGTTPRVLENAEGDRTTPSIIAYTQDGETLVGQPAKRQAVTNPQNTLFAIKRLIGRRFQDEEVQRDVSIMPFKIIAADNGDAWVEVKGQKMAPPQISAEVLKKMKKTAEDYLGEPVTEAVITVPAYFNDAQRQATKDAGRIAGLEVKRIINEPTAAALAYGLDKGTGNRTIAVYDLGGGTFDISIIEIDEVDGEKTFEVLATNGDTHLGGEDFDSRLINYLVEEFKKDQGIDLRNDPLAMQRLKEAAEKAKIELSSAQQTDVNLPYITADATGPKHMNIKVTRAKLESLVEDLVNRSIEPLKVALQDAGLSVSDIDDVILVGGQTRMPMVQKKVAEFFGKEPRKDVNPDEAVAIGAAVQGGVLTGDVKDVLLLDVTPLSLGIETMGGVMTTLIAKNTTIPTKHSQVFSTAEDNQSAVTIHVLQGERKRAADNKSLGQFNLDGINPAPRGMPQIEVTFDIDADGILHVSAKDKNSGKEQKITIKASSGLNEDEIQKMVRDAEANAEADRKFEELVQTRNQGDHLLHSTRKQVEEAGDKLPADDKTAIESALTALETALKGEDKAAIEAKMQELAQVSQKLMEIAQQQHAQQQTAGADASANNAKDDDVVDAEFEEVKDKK

Row | SMILES | Kd
1 | CC(=O)Nc1ccc(S(=O)(=O)NC(N)=O)cc1 | > 4 mM (inactive)
2 | Cc1nc2sccn2c1C(=O)O | > 4 mM (inactive)
3 | [O-][n+]1c2ccccc2[n+]([O-])c2cc(O)ccc21 | > 4 mM (inactive)
4 | Fc1ccc(NC2=NCCS2)cc1Cl | > 4 mM (inactive)
5 | COc1cc(C)nc(N(CCO)CCO)n1 | > 4 mM (inactive)
6 | COC(=O)c1ccc(Cl)c(NC(C)=O)c1 | > 4 mM (inactive)
7 | Cc1nnc2ccc(N3CCCC3)nn12 | > 4 mM (inactive)
8 | Nc1cccc(CC(=S)N2CCOCC2)c1 | > 4 mM (inactive)
9 | Cc1nnc(NCCN2CCOCC2)[nH]c1=O | > 4 mM (inactive)
10 | CC1(C)CC(=O)c2cnn(-c3nc4ccccc4[nH]3)c2C1 | > 4 mM (inactive)
11 | C=C1[C@H]2CC[C@@]3(C)[C@H](c4ccoc4)OC(=O)C[C@]13O[C@H]1C[C@H](O)C(C)(C)[C@H](CC(=O)OC)[C@]12C | > 4 mM (inactive)
12 | Cc1ccc(/C=C2/NC(=S)NC2=O)s1 | > 4 mM (inactive)
13 | O=C(O)c1cnc2n(c1=O)CCS2 | > 4 mM (inactive)
14 | Cc1ccccc1CSc1nncn1N | > 4 mM (inactive)
15 | O=C(O)C1CSC(c2cccnc2)N1 (stereo not given) | > 4 mM (inactive)
16 | N#CCSc1nc(-c2ccccc2)cs1 | > 4 mM (inactive)
17 | Cc1ncoc1C(=O)Nc1ccccc1C(N)=O | > 4 mM (inactive)
18 | O=C1CCN(c2ccccc2)N1 | > 4 mM (inactive)
19 | Cc1ccc2c(c1)CCCN2C(=O)c1c(C)noc1C | > 4 mM (inactive)
20 | C=C1CCC(=O)C(C)CCC2C1CC2(C)C (stereo not given) | > 4 mM (inactive)
21 | COC(=O)Nc1nnc(-c2ccncc2)s1 | > 4 mM (inactive)
22 | Cc1ccc(NC(=O)CC2NCCNC2=O)c(C)c1 (stereo not given) | > 4 mM (inactive)
23 | CC1=NN2C(=N)/C(=C\c3cccs3)C(=O)N=C2S1 | > 4 mM (inactive)
24 | CCOC(=O)CNC(=O)CSc1nnc(C)c(=O)[nH]1 | > 4 mM (inactive)

Row | SMILES | Kd
25 | C/C=C(/C)C(=O)O[C@@H]1Cc2c(ccc3ccc(=O)oc23)OC1(C)C | > 4 mM (inactive)
26 | O=C(Nc1ccccc1)Nc1ccccc1 | > 4 mM (inactive)
27 | COc1c(O)cc2oc3cc(O)c(CC=C(C)C)c(O)c3c(=O)c2c1CC=C(C)C | > 4 mM (inactive)
28 | O=C(/C(=N\O)n1cncn1)c1ccccc1Cl | > 4 mM (inactive)
29 | C=C1C(N)CC2CC1C2(C)C (stereo not given) | > 4 mM (inactive)
30 | C=CCc1cc(C(=O)N2CCCCC2)ccc1O | > 4 mM (inactive)
31 | CC(=O)c1c(C)nc(-c2ccc(F)cc2)n1O | > 4 mM (inactive)
32 | NS(=O)(=O)c1ccc(N2CCCC2=O)cc1 | > 4 mM (inactive)
33 | O=C1CNC(=O)/C1=C/c1ccc(O)cc1 | > 4 mM (inactive)
34 | Nc1ccc(CN2CCS(=O)(=O)CC2)cc1 | > 4 mM (inactive)
35 | NC(C(=O)O)C(O)C(=O)O (stereo not given) | > 4 mM (inactive)
36 | O=C(Nc1cnccn1)c1cccc(C(F)(F)F)c1 | > 4 mM (inactive)
37 | CC(C)CCCC(C)C1CCC2C3CC(=O)[C@H]4C[C@@H](O)CC[C@]4(C)C3CC[C@]12C (stereo not given in full) | > 4 mM (inactive)
38 | CCNC(=S)N1CCC(C(N)=O)CC1 | > 4 mM (inactive)
39 | CC(=O)Nc1sc(C)c(C)c1C(N)=O | > 4 mM (inactive)
40 | S=C(CN1CCCC1=S)N1CCOCC1 | > 4 mM (inactive)
41 | NCc1ccccc1N1CCOCC1 | > 4 mM (inactive)
42 | COc1ccc2c(c1)OC[C@@H](Cc1ccc(OC)c(OC)c1)[C@H]2O | > 4 mM (inactive)
43 | Cc1[nH]c2ccccc2c1C=Nn1cncn1 | > 4 mM (inactive)
44 | O=C(/C=C/c1ccccc1)c1ccc(O[C@@H]2O[C@H](CO)[C@@H](O)[C@H](O)[C@H]2O)cc1O | > 4 mM (inactive)
45 | COC(=O)c1cccnc1Oc1ccccc1 | > 4 mM (inactive)
46 | O=C1CSC(=NC(=O)c2ccccc2)N1 | > 4 mM (inactive)
47 | OCc1ccc2nonc2c1 | > 4 mM (inactive)
48 | c1csc(-c2nnc3ccccn23)c1 | > 4 mM (inactive)

Row | SMILES | Kd
49 | Cc1ccc(C)n1/N=C1\NC(=O)CS1 | > 4 mM (inactive)
50 | O=S(=O)(O)c1nc2ccccc2[nH]1 | > 4 mM (inactive)
51 | CC1=NN(C(N)=S)C(C)(C)C1 | > 4 mM (inactive)
52 | O=C(O)c1csc(-c2ccccc2)n1 | > 4 mM (inactive)
53 | C[C@H]1O[C@@H](O[C@H]2[C@@H](O)C[C@H](O[C@H]3[C@@H](O)C[C@H](O[C@H]4CC[C@]5(C)C6CC[C@]7(C)[C@@H](C8=CC(=O)OC8)CC[C@]7(O)C6CC[C@@H]5C4)O[C@@H]3C)O[C@@H]2C)C[C@H](O)[C@@H]1O (stereo not given in full) | > 4 mM (inactive)
54 | Cc1ccc(S(C)(=O)=O)s1 | > 4 mM (inactive)
55 | CCC1C(=O)OCC1Cc1cncn1C (stereo not given) | > 4 mM (inactive)
56 | CCOc1ccc(-c2n[nH]c(=S)n2C)cc1 | > 4 mM (inactive)
57 | COc1ccc(-c2coc3c(O)c(OC)ccc3c2=O)cc1 | > 4 mM (inactive)
58 | CC(C)/C(O)=C1/C(=O)O[C@@H](c2ccoc2)[C@]2(C)C(O)[C@@H](O)[C@@]34OC5(C)OC67CC(C)(C(O)[C@]6(O)[C@@H](O)[C@]3(O5)C12)[C@H](CC(=O)O)[C@]74C (stereo not given in full) | > 4 mM (inactive)
59 | Cc1cc(C)n(/N=C\c2cccs2)c(=O)c1C(N)=O | > 4 mM (inactive)
60 | O=C1c2ccccc2C(=O)N1CCc1ccccn1 | > 4 mM (inactive)
61 | O=C(Nc1ccon1)c1cccc(Cl)c1 | > 4 mM (inactive)
62 | O=C(O)CNc1ncnc2nc[nH]c12 | > 4 mM (inactive)
63 | Cc1cc(C(=O)NC(C)c2ccncc2)no1 (stereo not given) | > 4 mM (inactive)
64 | CC(=O)NC(=S)Nc1cccc(C(=O)O)c1C | > 4 mM (inactive)
65 | O=C1CCCN1C(=O)CN1CCOCC1 | > 4 mM (inactive)
66 | CSc1ccc(C(=S)N2CCN(C)CC2)cc1 | > 4 mM (inactive)
67 | CN1CCC=C(C(=O)O)C1 | > 4 mM (inactive)
68 | O=C1Nc2ccc(S(=O)(=O)NCCO)c3cccc1c23 | > 4 mM (inactive)
69 | CNC(=S)N1CCN(C(=O)c2ccco2)CC1 | > 4 mM (inactive)
70 | Nc1nnc(SCc2ccc(F)cc2)s1 | > 4 mM (inactive)
71 | O=P(O)(Cc1ccccc1)c1ccccc1 | > 4 mM (inactive)
72 | O=c1ccc(=O)n(CN2CCc3ccccc3C2)[nH]1 | > 4 mM (inactive)

Row | SMILES | Kd
73 | CC(=O)NC12CC3CC(CC(O)(C3)C1)C2 | > 4 mM (inactive)
74 | CC(=O)OC1CCC23C(=O)OC45CCC(C6=CC(=O)OC6)C4(C)CCC2C5CCC3(O)C1 (stereo not given) | > 4 mM (inactive)
75 | COc1ccc(C2CC(=O)NN2)cc1OC1CCCC1 (stereo not given) | > 4 mM (inactive)
76 | CC1(c2ccncc2)NC(=O)NC1=O (stereo not given) | > 4 mM (inactive)
77 | NC1=C([N+](=O)[O-])C(=O)c2ccccc21 | > 4 mM (inactive)
78 | Cc1onc(-c2c(F)cccc2Cl)c1C(N)=O | > 4 mM (inactive)
79 | S=C(c1cccnc1)N1CCOCC1 | > 4 mM (inactive)
80 | CC(O)C(=O)N/N=C/c1ccccc1 (stereo not given) | > 4 mM (inactive)
81 | COC(=O)c1nc(-c2ccccc2)oc1N(C)C | > 4 mM (inactive)
82 | COc1ccc(/C=C2/NC(=S)NC2=O)cc1 | > 4 mM (inactive)
83 | Nc1nncn1C(=O)c1ccccc1Cl | > 4 mM (inactive)
84 | Nc1cc(=O)[nH]c(SCC(=O)Nc2nccs2)n1 | > 4 mM (inactive)
85 | O=C1CSC(=Nc2ccc(O)cc2)N1 | > 4 mM (inactive)
86 | O=C(O)C1CN(Cc2ccccc2)CCO1 (stereo not given) | > 4 mM (inactive)
87 | O=C(NC1CC1)c1ccccc1[N+](=O)[O-] | > 4 mM (inactive)
88 | C=CCSc1[nH]c(=O)cc(C)c1C(N)=O | > 4 mM (inactive)
89 | CC(C)=CCC1=C(O)c2ccccc2C(=O)C1=O | > 4 mM (inactive)
90 | CC(=O)Oc1ccc2c(c1OC(C)=O)OCC1(O)Cc3c(cc(OC(C)=O)c(OC(C)=O)c3OC(C)=O)C21 (stereo not given) | > 4 mM (inactive)
91 | O=C(NCc1cccnc1)c1ccccn1 | > 4 mM (inactive)
92 | Cc1occc1C(=O)NCc1ccccn1 | > 4 mM (inactive)
93 | CCOC(=O)N1CCCC1c1cccnc1 (stereo not given) | > 4 mM (inactive)
94 | Cc1ccc(C)c(S(=O)(=O)NCc2cccnc2)c1 | > 4 mM (inactive)
95 | CSCCNC(C)=O | > 4 mM (inactive)
96 | Nc1ccc(Cc2ccc(N)cc2)cc1 | > 4 mM (inactive)

Row | SMILES | Kd
97 | O=C1c2cccnc2C(=O)N1Cc1ccco1 | > 4 mM (inactive)
98 | CCCCCCCCCCCCCc1ccco1 | > 4 mM (inactive)
99 | CC(=O)c1csc(-c2cc(C)on2)n1 | > 4 mM (inactive)
100 | Nc1cccc(F)c1-c1ncon1 | > 4 mM (inactive)
101 | O=C(O)C1CC(=O)N(C2Cc3ccccc3C2)C1 (stereo not given) | > 4 mM (inactive)
102 | CCc1noc(C)c1C(=O)Nc1ncc(C)s1 | > 4 mM (inactive)
103 | Cc1nc2ccccc2c(=O)n1/N=C/c1ccncc1 | > 4 mM (inactive)
104 | CNS(=O)(=O)c1ccc2[nH]c(=O)[nH]c2c1 | > 4 mM (inactive)
105 | O=c1[nH]c2c(c(=O)n1C1CCCCC1)CCC2 | > 4 mM (inactive)
106 | CC1SC(=NC(=O)c2ccncc2)NC1=O (stereo not given) | > 4 mM (inactive)
107 | O=C1CC[C@]23/C=C/C(=O)NCCCCNCCCNC(=O)/C=C/c4ccc(c2c4)O[C@@H]3C1 | > 4 mM (inactive)
108 | CCNS(=O)(=O)c1cc(Br)ccc1OC | > 4 mM (inactive)
109 | NC(=O)Cn1nc(-c2ccco2)ccc1=O | > 4 mM (inactive)
110 | O=C(Nc1ccon1)c1csc2c1CCCC2 | > 4 mM (inactive)
111 | Cn1c(=O)c2[nH]cnc2n(C)c1=O | > 4 mM (inactive)
112 | c1ccc(NCc2nc(-c3ccccc3)no2)cc1 | > 4 mM (inactive)
113 | NC(=O)CS(=O)(=O)c1ccc2ccccc2c1 | > 4 mM (inactive)
114 | CC1(O)CC2C=CC1C2 (stereo not given) | > 4 mM (inactive)
115 | COC(=O)Cc1cc(=O)n(-c2ccccc2)[nH]1 | > 4 mM (inactive)
116 | Nc1ccc(-n2cncn2)cc1 | > 4 mM (inactive)
117 | Cn1c(SCC(N)=O)nc2c1c(=O)[nH]c(=O)n2C | > 4 mM (inactive)
118 | O=C(NCC1CCNCC1)c1ccncc1 | > 4 mM (inactive)
119 | NCc1ccc(S(N)(=O)=O)cc1 | > 4 mM (inactive)
120 | O=C1N=c2ccccc2=C1c1[nH]c(=S)[nH]c1O | > 4 mM (inactive)
